# Measurements: patent US20150284381A1, “AMINO-PYRIDINE-CONTAINING SPLEEN TYROSINE KINASE (SYK) INHIBITORS” (MERCK SHARP & DOHME CORP., priority 2012, published 2015)
# System: PGD2
# Test: not given
# Conditions: dosed intranasally, phase I/II study, allergic rhinitis; cited from earlier work
SMILES,PGD2,clinical safety
Oc1cccc(Nc2ncc(F)c(Nc3cccc(O)c3)n2)c1 [Example R112],statistically significant decrease,safe across a range of indicators

# System: not given
# Test: not given
# Conditions: phase II clinical trial, allergic rhinitis; cited from earlier work
row,SMILES,efficacy versus placebo
1,Oc1cccc(Nc2ncc(F)c(Nc3cccc(O)c3)n2)c1 [Example R112],lack of efficacy versus placebo

# Molecular target: T1, recombinant human GST-Syk (Homo sapiens, UniProt P43405)
# T1 construct: purchased Carna Biosciences 08-176
# Test: Homogeneous Time-Resolved Fluorescence (HTRF) assay for the recombinant human Syk enzyme
# Assay type: biochemical
# Conditions: recombinant human GST-Syk 5 pM, ATP 25 μM, 45 min at rt, read-out: rhSyk
# Description: Homogeneous Time-Resolved Fluorescence (HTRF) Assay for the Recombinant Human Syk Enzyme
# A recombinant GST-hSyk fusion protein was used to measure potency of compounds to inhibit human Syk activity. The recombinant human GST-Syk (Carna Biosciences #08-176) (5 pM nominal concentration) was incubated with various concentrations of the inhibitor diluted in DMSO (0.1% final concentration) for 10 minutes at rt in 15 mM Tris-HCl (pH 7.5), 0.01% tween 20, 2 mM DTT in 384 well plate format. To initiate the reaction the biotinylated substrate peptide (250 nM final concentration) that contains the phosphorylation site for Syk was added with magnesium (5 mM final concentration) and ATP (25 μM final concentration). Final volume of the reaction was 10 μL. Phosphorylation of the peptide was allowed to proceed for 45′ at rt. To quench the reaction and detect the phosphorylated product, 2 nM of a Europium-anti-phosphotyrosine antibody (Perkin Elmer #AD0161) and 70 nM SA-APC (Perkin-Elmer #CR130-100) were added together in 15 mM Tris pH 7.5, 40 mM EDTA, 0.01% tween 20. Final volume of the quenching solution was 10 μL. The resulting HTRF signal was measured after 30 minutes on a EnVision (Perkin-Elmer) reader using a time-resolved fluorescence protocol. IC50 was determined following 10-dose titration (10 μM to 0.508 nM) and four parameter logistic curve fitting using an assay data analyzer.
row,IC50 [nM],SMILES
1,0.1,"Cc1cc(Nc2cc(C(C)F)ccn2)nc(-c2cnc(C3(O)CCCc4cc(C(=O)O)ccc43)s2)c1 (single isomer, unassigned) [Example 8D, 5-(5-(6-((4-(1-Fluoroethyl)pyridin-2-yl)amino)-4-methylpyridin-2-yl)thiazol-2-yl)-5-hydroxy-5,6,7,8-tetrahydronaphthalene-2-carboxylic acid]"
2,2.38,"COC(=O)c1ccc2c(c1)CCCC2(O)c1ncc(-c2cc(C)cc(Nc3cc(-c4cn[nH]c4)ccn3)n2)s1 (stereo not drawn) [Example 4A, Methyl 5-(5-(6-((4-(1H-pyrazol-4-yl)pyridin-2-yl)amino)-4-methylpyridin-2-yl)thiazol-2-yl)-5-hydroxy-5,6,7,8-tetrahydronaphthalene-2-carboxylate]"
3,0.04,"Cc1cc(Nc2cc(-c3cn[nH]c3)ccn2)nc(-c2cnc([C@@]3(O)CCc4cc(C(=O)O)ccc43)s2)c1 [Example 5A, (1R)-1-hydroxy-1-[5-(4-methyl-6-{[4-(1H-pyrazol-4-yl)pyridin-2-yl]amino}pyridin-2-yl)-1,3-thiazol-2-yl]-2,3-dihydro-1H-indene-5-carboxylic acid]"
4,0.73,"Cc1cc(Nc2cc(-c3c[nH]nn3)ccn2)nc(-c2cnc([C@@]3(O)CCCc4cc(C(=O)N(C)C)ccc43)s2)c1 [Example 6A, (5R)-5-hydroxy-N,N-dimethyl-5-[5-(4-methyl-6-{[4-(1H-1,2,3-triazol-4-yl)pyridin-2-yl]amino}pyridin-2-yl)-1,3-thiazol-2-yl]-5,6,7,8-tetrahydronaphthalene-2-carboxamide]"

# Continued, compound first:
row,SMILES,IC50 [nM]
1,"Cc1ccnc(Nc2cc(C)cc(-c3cnc([C@@]4(O)CCc5cc(C(=O)O)ccc54)s3)n2)c1 [Example 2A, (1R)-1-hydroxy-1-(5-{4-methyl-6-[(4-methylpyridin-2-yl)amino]pyridin-2-yl}-1,3-thiazol-2-yl)-2,3-dihydro-1H-indene-5-carboxylic acid]",0.15
2,"CCc1ccnc(Nc2cc(C)cc(-c3cnc([C@@]4(O)CCc5cc(C(=O)O)ccc54)s3)n2)c1 [Example 2B, (1R)-1-(5-{6-[(4-ethylpyridin-2-yl)amino]-4-methylpyridin-2-yl}-1,3-thiazol-2-yl)-1-hydroxy-2,3-dihydro-1H-indene-5-carboxylic acid]",0.17
3,"Cc1cc(Nc2cc(C3CC3)ccn2)nc(-c2cnc([C@@]3(O)CCc4cc(C(=O)O)ccc43)s2)c1 [Example 2C, (1R)-1-(5-{6-[(4-cyclopropylpyridin-2-yl)amino]-4-methylpyridin-2-yl}-1,3-thiazol-2-yl)-1-hydroxy-2,3-dihydro-1H-indene-5-carboxylic acid]",0.55
4,"CCOc1ccnc(Nc2cc(C)cc(-c3cnc([C@@]4(O)CCc5cc(C(=O)O)ccc54)s3)n2)c1 [Example 2D, (1R)-1-(5-{6-[(4-ethoxypyridin-2-yl)amino]-4-methylpyridin-2-yl}-1,3-thiazol-2-yl)-1-hydroxy-2,3-dihydro-1H-indene-5-carboxylic acid]",0.74
5,"CCOc1ccnc(Nc2cc(C)cc(-c3cnc([C@@]4(O)CCCc5cc(C(=O)O)ccc54)s3)n2)c1 [Example 2E, (5R)-5-(5-{6-[(4-ethoxypyridin-2-yl)amino]-4-methylpyridin-2-yl}-1,3-thiazol-2-yl)-5-hydroxy-5,6,7,8-tetrahydronaphthalene-2-carboxylic acid]",0.16
6,"CCc1ccnc(Nc2cc(C)cc(-c3cnc([C@@]4(O)CCCc5cc(C(=O)O)ccc54)s3)n2)c1 [Example 2F, (5R)-5-(5-{6-[(4-ethylpyridin-2-yl)amino]-4-methylpyridin-2-yl}-1,3-thiazol-2-yl)-5-hydroxy-5,6,7,8-tetrahydronaphthalene-2-carboxylic acid]",0.2
7,"COc1ccnc(Nc2cc(C)cc(-c3cnc([C@@]4(O)CCc5cc(C(=O)O)ccc54)s3)n2)c1 [Example 2G, (1R)-1-hydroxy-1-(5-{6-[(4-methoxypyridin-2-yl)amino]-4-methylpyridin-2-yl}-1,3-thiazol-2-yl)-2,3-dihydro-1H-indene-5-carboxylic acid]",0.16
8,"CCCOc1ccnc(Nc2cc(C)cc(-c3cnc([C@@]4(O)CCc5cc(C(=O)O)ccc54)s3)n2)c1 [Example 2H, (1R)-1-hydroxy-1-(5-{4-methyl-6-[(4-propoxypyridin-2-yl)amino]pyridin-2-yl}-1,3-thiazol-2-yl)-2,3-dihydro-1H-indene-5-carboxylic acid]",0.06
9,"Cc1cc(Nc2cc(C(F)F)ccn2)nc(-c2cnc([C@@]3(O)CCc4cc(C(=O)O)ccc43)s2)c1 [Example 2i, (1R)-1-[5-(6-{[4-(difluoromethyl)pyridin-2-yl]amino}-4-methylpyridin-2-yl)-1,3-thiazol-2-yl]-1-hydroxy-2,3-dihydro-1H-indene-5-carboxylic acid]",0.13
10,"Cc1cc(Nc2cc(C3CCCC(C)C3)ccn2)nc(-c2cnc([C@@]3(O)CCCc4cc(C(=O)O)ccc43)s2)c1 (stereo partly drawn) [Example 3A, (5R)-5-hydroxy-5-[5-(4-methyl-6-{[4-(3-methylcyclohexyl)pyridin-2-yl]amino}pyridin-2-yl)-1,3-thiazol-2-yl]-5,6,7,8-tetrahydronaphthalene-2-carboxylic acid]",1.8
11,"Cc1cc(Nc2cc(C3CCC(C)CC3)ccn2)nc(-c2cnc([C@@]3(O)CCCc4cc(C(=O)O)ccc43)s2)c1 (stereo partly drawn) [Example 3B, (5R)-5-hydroxy-5-[5-(4-methyl-6-{[4-(4-methylcyclohexyl)pyridin-2-yl]amino}pyridin-2-yl)-1,3-thiazol-2-yl]-5,6,7,8-tetrahydronaphthalene-2-carboxylic acid]",2
12,"CCC(CC)c1ccnc(Nc2cc(C)cc(-c3cnc([C@@]4(O)CCCc5cc(C(=O)O)ccc54)s3)n2)c1 [Example 3C, (5R)-5-[5-(6-{[4-(1-ethylpropyl)pyridin-2-yl]amino}-4-methylpyridin-2-yl)-1,3-thiazol-2-yl]-5-hydroxy-5,6,7,8-tetrahydronaphthalene-2-carboxylic acid]",0.5
13,"CCCc1ccnc(Nc2cc(C)cc(-c3cnc([C@@]4(O)CCc5cc(C(=O)O)ccc54)s3)n2)c1 [Example 3D, (1R)-1-hydroxy-1-(5-{4-methyl-6-[(4-propylpyridin-2-yl)amino]pyridin-2-yl}-1,3-thiazol-2-yl)-2,3-dihydro-1H-indene-5-carboxylic acid]",0.08
14,"CCCc1ccnc(Nc2cc(C)cc(-c3cnc([C@@]4(O)CCCc5cc(C(=O)O)ccc54)s3)n2)c1 [Example 3E, (5R)-5-hydroxy-5-(5-{4-methyl-6-[(4-propylpyridin-2-yl)amino]pyridin-2-yl}-1,3-thiazol-2-yl)-5,6,7,8-tetrahydronaphthalene-2-carboxylic acid]",0.42
